# Test results: PubChem BioAssay (NCI)
#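 Assay format: 96-well plates, 48-hour exposure. GI50 is the concentration that inhibits growth by half. TGI denotes the concentration required for complete inhibition of growth.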
# Key:
# Test in all cases: NCI anticancer screen, dose series, 48 h
# HCC-2998 colon = test system: HCC-2998 colon
# NCI/ADR-RES ovarian = test system: NCI/ADR-RES ovarian
# OVCAR-5 ovarian = test system: OVCAR-5 ovarian
# HL-60(TB) leukemia = test system: HL-60(TB) leukemia
# HT29 colon = test system: HT29 colon
# SK-OV-3 ovarian = test system: SK-OV-3 ovarian
# HOP-62 NSCLC = test system: HOP-62 NSCLC
# RPMI-8226 leukemia = test system: RPMI-8226 leukemia
# NCI-H23 lung = test system: NCI-H23 lung
# NCI-H460 lung = test system: NCI-H460 lung
# UACC-257 melanoma = test system: UACC-257 melanoma
# SF-539 CNS = test system: SF-539 CNS
# HOP-92 NSCLC = test system: HOP-92 NSCLC
# PC-3 prostate = test system: PC-3 prostate
# SN12C renal = test system: SN12C renal
# KM12 colon = test system: KM12 colon
# COLO 205 colon = test system: COLO 205 colon
# ACHN renal = test system: ACHN renal
# A549 NSCLC = test system: A549 NSCLC
# EKVX NSCLC = test system: EKVX NSCLC
# BT-549 breast = test system: BT-549 breast
# M14 melanoma = test system: M14 melanoma
# OVCAR-3 ovarian = test system: OVCAR-3 ovarian
# K-562 leukemia = test system: K-562 leukemia
# U251 CNS = test system: U251 CNS
# IGROV1 ovarian = test system: IGROV1 ovarian
# UO-31 renal = test system: UO-31 renal
# MDA-MB-231 breast = test system: MDA-MB-231 breast
# MALME-3M melanoma = test system: MALME-3M melanoma
# SNB-75 CNS = test system: SNB-75 CNS
# MCF7 breast = test system: MCF7 breast
# DU-145 prostate = test system: DU-145 prostate
# MOLT-4 leukemia = test system: MOLT-4 leukemia
# TK-10 renal = test system: TK-10 renal
# 786-0 renal = test system: 786-0 renal
# HS 578T breast = test system: HS 578T breast
# MDA-MB-435 = test system: MDA-MB-435
# OVCAR-4 ovarian = test system: OVCAR-4 ovarian
# T-47D breast = test system: T-47D breast
# NCI-H226 lung = test system: NCI-H226 lung
# LOX IMVI melanoma = test system: LOX IMVI melanoma
# NCI-H522 lung = test system: NCI-H522 lung
# SW-620 colon = test system: SW-620 colon
# A498 renal = test system: A498 renal
# CAKI-1 renal = test system: CAKI-1 renal
# SK-MEL-28 melanoma = test system: SK-MEL-28 melanoma
# OVCAR-8 ovarian = test system: OVCAR-8 ovarian
# SF-268 CNS = test system: SF-268 CNS
# SK-MEL-2 melanoma = test system: SK-MEL-2 melanoma
# UACC-62 melanoma = test system: UACC-62 melanoma
# HCT-15 colon = test system: HCT-15 colon
# HCT-116 colon = test system: HCT-116 colon
# RXF 393 renal = test system: RXF 393 renal
# SF-295 CNS = test system: SF-295 CNS
# SNB-19 CNS = test system: SNB-19 CNS
# SK-MEL-5 melanoma = test system: SK-MEL-5 melanoma
# CCRF-CEM leukemia = test system: CCRF-CEM leukemia
smiles,measurement,setting,value
Cc1cc(Cl)ccc1OCc1nn2c(CCCCc3nnc4sc(COc5ccc(Cl)cc5C)nn34)nnc2s1,GI50,HCC-2998 colon,30.2 µM
same,TGI,HCC-2998 colon,> 100 µM
same,GI50,NCI/ADR-RES ovarian,23 µM
same,TGI,NCI/ADR-RES ovarian,74 µM
same,GI50,OVCAR-5 ovarian,> 100 µM
same,TGI,OVCAR-5 ovarian,> 100 µM
same,GI50,HL-60(TB) leukemia,> 94.2 µM
same,TGI,HL-60(TB) leukemia,> 100 µM
same,GI50,HT29 colon,43.6 µM
same,TGI,HT29 colon,> 100 µM
same,GI50,SK-OV-3 ovarian,35.4 µM
same,TGI,SK-OV-3 ovarian,73.1 µM
same,GI50,HOP-62 NSCLC,32.2 µM
same,TGI,HOP-62 NSCLC,58.5 µM
same,GI50,RPMI-8226 leukemia,18.9 µM
same,TGI,RPMI-8226 leukemia,> 100 µM
same,GI50,NCI-H23 lung,29.8 µM
same,TGI,NCI-H23 lung,> 100 µM
same,GI50,NCI-H460 lung,24.7 µM
same,TGI,NCI-H460 lung,> 93.6 µM
same,GI50,UACC-257 melanoma,8.41 µM
same,TGI,UACC-257 melanoma,> 100 µM
same,TGI,SF-539 CNS,1.47 µM
same,GI50,HOP-92 NSCLC,34.2 µM
same,TGI,HOP-92 NSCLC,> 68.8 µM
same,GI50,PC-3 prostate,22.4 µM
same,TGI,PC-3 prostate,> 80.1 µM
same,GI50,SN12C renal,37.8 µM
same,TGI,SN12C renal,> 100 µM
same,GI50,KM12 colon,17.2 µM
same,TGI,KM12 colon,> 100 µM
same,GI50,COLO 205 colon,43.5 µM
same,TGI,COLO 205 colon,> 100 µM
same,GI50,ACHN renal,34.1 µM
same,TGI,ACHN renal,> 100 µM
same,GI50,A549 NSCLC,27 µM
same,TGI,A549 NSCLC,> 100 µM
same,GI50,EKVX NSCLC,11.3 µM
same,TGI,EKVX NSCLC,> 76.2 µM
same,GI50,BT-549 breast,11.6 µM
same,TGI,BT-549 breast,51.8 µM
same,GI50,M14 melanoma,45.9 µM
same,TGI,M14 melanoma,> 100 µM
same,GI50,OVCAR-3 ovarian,7.99 µM
same,TGI,OVCAR-3 ovarian,72.2 µM
same,GI50,K-562 leukemia,> 73.2 µM
same,TGI,K-562 leukemia,> 100 µM
same,GI50,U251 CNS,25.3 µM
same,TGI,U251 CNS,> 74.7 µM
same,GI50,IGROV1 ovarian,28.4 µM
same,TGI,IGROV1 ovarian,> 100 µM
same,GI50,UO-31 renal,14.5 µM
same,TGI,UO-31 renal,> 100 µM
same,GI50,MDA-MB-231 breast,17.7 µM
same,TGI,MDA-MB-231 breast,> 78.6 µM
same,GI50,MALME-3M melanoma,29.2 µM
same,TGI,MALME-3M melanoma,> 86.1 µM
same,GI50,SNB-75 CNS,13.8 µM
same,TGI,SNB-75 CNS,51 µM
same,GI50,MCF7 breast,21.9 µM
same,TGI,MCF7 breast,> 73.2 µM
same,GI50,DU-145 prostate,13.9 µM
same,TGI,DU-145 prostate,> 100 µM
same,GI50,MOLT-4 leukemia,25.5 µM
same,TGI,MOLT-4 leukemia,> 100 µM
same,GI50,TK-10 renal,26.2 µM
same,TGI,TK-10 renal,74.2 µM
same,GI50,786-0 renal,26.7 µM
same,TGI,786-0 renal,55.5 µM
same,GI50,HS 578T breast,0.544 µM
same,GI50,MDA-MB-435,7.12 µM
same,TGI,MDA-MB-435,> 57.8 µM
same,GI50,OVCAR-4 ovarian,21.2 µM
same,TGI,OVCAR-4 ovarian,> 69.6 µM
same,GI50,T-47D breast,14.6 µM
same,TGI,T-47D breast,57.2 µM
same,GI50,NCI-H226 lung,21.8 µM
same,TGI,NCI-H226 lung,74.5 µM
same,GI50,LOX IMVI melanoma,28.2 µM
same,TGI,LOX IMVI melanoma,> 100 µM
same,GI50,NCI-H522 lung,20.8 µM
same,TGI,NCI-H522 lung,61.7 µM
same,GI50,SW-620 colon,3.48 µM
same,TGI,SW-620 colon,> 41 µM
same,GI50,A498 renal,1.67 µM
same,TGI,A498 renal,8.21 µM
same,GI50,CAKI-1 renal,4.52 µM
same,TGI,CAKI-1 renal,> 55.3 µM
same,GI50,SK-MEL-28 melanoma,52.7 µM
same,TGI,SK-MEL-28 melanoma,> 100 µM
same,GI50,OVCAR-8 ovarian,8.99 µM
same,TGI,OVCAR-8 ovarian,> 83.1 µM
same,GI50,SF-268 CNS,23 µM
same,TGI,SF-268 CNS,> 76.7 µM
same,GI50,SK-MEL-2 melanoma,> 63.4 µM
same,TGI,SK-MEL-2 melanoma,> 89.5 µM
same,GI50,UACC-62 melanoma,22.6 µM
same,TGI,UACC-62 melanoma,> 100 µM
same,GI50,HCT-15 colon,47.1 µM
same,TGI,HCT-15 colon,> 100 µM
same,GI50,HCT-116 colon,32.2 µM
same,TGI,HCT-116 colon,> 81 µM
same,GI50,RXF 393 renal,18 µM
same,TGI,RXF 393 renal,62.8 µM
same,GI50,SF-295 CNS,8.28 µM
same,TGI,SF-295 CNS,76.2 µM
same,GI50,SNB-19 CNS,48.9 µM
same,TGI,SNB-19 CNS,> 80.4 µM
same,GI50,SK-MEL-5 melanoma,1.68 µM
same,TGI,SK-MEL-5 melanoma,9.75 µM
same,GI50,CCRF-CEM leukemia,33.7 µM
same,TGI,CCRF-CEM leukemia,> 61.6 µM
